The record followed here is patent publication US20120046308A1, “NOVEL ALPHA-PHENOXYBENZENEACETIC ACID DERIVATIVE AND PHARMACEUTICAL PREPARATION COMPRISING SAME” (KOWA COMPANY, LTD., priority 2009, published 2012).

Assay [1] has as its target T1, human PPARγ2 (Homo sapiens, UniProt P37231).
T1 construct: the amino acids 182 to 505 of human PPARγ2; expressed in transfected cells; host or cells: COS7 cells (African green monkey kidney)
T1 sequence (P37231 182-505): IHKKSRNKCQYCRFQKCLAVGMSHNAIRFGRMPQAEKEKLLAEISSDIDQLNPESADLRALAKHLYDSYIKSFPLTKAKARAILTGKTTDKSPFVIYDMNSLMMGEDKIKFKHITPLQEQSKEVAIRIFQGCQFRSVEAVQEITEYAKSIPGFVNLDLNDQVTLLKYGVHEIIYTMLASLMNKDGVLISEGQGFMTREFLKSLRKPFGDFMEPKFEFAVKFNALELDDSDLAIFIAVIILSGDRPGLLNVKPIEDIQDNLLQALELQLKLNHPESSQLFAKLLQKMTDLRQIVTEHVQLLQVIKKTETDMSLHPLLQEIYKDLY
Nature of the assay: PPARγ activation activity, Gal4-PPARγ2 LBD luciferase transfection assay using COS7 cells. The assay is classed as cell-based. The following applies: for EC50: 16 hours, luciferase activity relative to rosiglitazone = 100%; for Emax: COS-7, 16 h, maximum activity strength relative to the maximum activity of rosiglitazone, read-out: % MAX vs Rosiglitazone. As to the method: The agonistic activity of the compounds of the invention on PPARγ was measured based on the transfection assay using COS7 cells (DS Pharma Biomedical Co., Ltd., Osaka, Japan), which are the cell line derived from the kidney of the African green monkey. COS7 cells were cultured under 5% CO2 concentration, and DMEM medium containing 10% fetal bovine serum, glutamic acid, and antibiotics was used as a medium.
As an expression vector, a chimera in which DNA binding domain of Gal4, which is a yeast transcription factor, and ligand binding domain of human PPARγ2 are fused, i.e., a fused product between the amino acids 1 to 147 of Gal4 transcription factor and the amino acids 182 to 505 of human PPARγ2, was used. Furthermore, as a reporter vector, a firefly luciferase containing five copies of Gal4 recognition sequence in the promoter region was used. Plasmid transfection to the cells was performed according to a method which uses jetPEI (trade name, manufactured by Funakoshi Co., Ltd., Tokyo, Japan). Furthermore, β-galactosidase expression vector was employed as an internal standard.
After the transfection of the cells, the medium was replaced with a DMEM medium (containing 1% serum) added with the compound, and the cells were further cultured for 16 hours. After that, the luciferase activity and β-galactosidase activity in the cell lysis solution were measured.
For the present test, dimethyl sulfoxide (DMSO) was used for dissolution and dilution of the test compounds, and during the cell treatment, the DMSO concentration in DMEM medium (containing 1% serum) was adjusted to 0.1%. As a positive compound, rosiglitazone (trade name, manufactured by ALEXIS Corporation, Switzerland) was used. The luciferase activity (%) of the test compounds (1 to 30 μmol/L) was calculated when the luciferase activity of rosiglitazone (3 to 10 μmol/L) is 100% and the luciferase activity in the absence of the test compound is 0%. The 50% effective concentration of the test compound (EC50, 50% effect concentration) was calculated by using SAS Preclinical Package Ver5.0 (trade name, manufactured by SAS institute Japan Co., Tokyo, Japan), which is a statistical analysis program.

Assay [2] deals with T1, human PPARγ2. The description is as above. The assay is classed as cell-based. The following applies: maximum activity relative to rosiglitazone.
For assay [3], the target named is T2, angiotensin II type 1 receptor (Oryctolagus cuniculus, UniProt P34976).
T2 construct: By using a specimen of isolated rabbit blood vessels; from tissue; host or cells: rabbit (New Zealand White) thoracic aorta ring
T2 sequence (P34976 1-359): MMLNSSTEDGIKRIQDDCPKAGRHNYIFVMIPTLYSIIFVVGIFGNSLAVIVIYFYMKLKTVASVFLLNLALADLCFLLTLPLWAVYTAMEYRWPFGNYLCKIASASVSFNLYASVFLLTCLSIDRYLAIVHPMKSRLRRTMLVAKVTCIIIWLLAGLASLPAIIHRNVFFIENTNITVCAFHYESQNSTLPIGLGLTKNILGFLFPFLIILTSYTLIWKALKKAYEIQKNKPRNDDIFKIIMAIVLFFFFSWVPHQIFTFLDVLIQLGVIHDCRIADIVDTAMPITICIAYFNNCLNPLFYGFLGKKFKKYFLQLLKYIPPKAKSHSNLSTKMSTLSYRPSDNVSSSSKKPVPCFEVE
Put plainly: Angiotensin II antagonistic activity in isolated rabbit blood vessels (thoracic aorta ring contraction). Conditions: angiotensin II (10 nM)-induced contraction. Here is the method: By using a specimen of isolated rabbit blood vessels, antagonistic activity of the compounds of the invention against angiotensin II type 1 receptor was estimated from a dose-response curve of angiotensin II-induced blood vessel contraction.
During the measurement, the inside temperature of the magnus bath was maintained at 37° C. and the bath was continuously ventilated with a sufficient amount of mixed gas (95% O2 and 5% CO2). The angiotensin II-induced contraction was converted into a relative value (%) that is based on the angiotensin II (10 nM)-induced contraction in the absence of the compounds of each example. From the concentration-response curve obtained therefrom, 50% inhibition concentration (IC50 value) was calculated by using SAS Preclinical Package Ver5.0 (trade name, manufactured by SAS institute Japan Co., Tokyo, Japan), which is a statistical analysis program.

Where two headings read alike, the source gives them in different places.

Turning to `CCCCc1nc(C)n(-c2ccc(OC(C)C)cc2)c(=O)c1Cc1cc(CCC)c(OC(C(=O)O)c2ccccc2)c(CCC)c1` (stereo not drawn) [Example 14], the EC50 in assay [1] (COS7 cells, read-out: EC50) was determined as 600 nM. In addition, the Emax in assay [1] stood at 63%. Also, the “maximum activity compared with that of termisartan” value (from here on “maximum activity compared with that”) in assay [2] is on record as “equal to or more than that of termisartan”.

In the case of `CCCCc1nc(C)n(-c2ccccn2)c(=O)c1Cc1cc(CCC)c(OC(C(=O)O)c2ccc(Cl)cc2)c(CCC)c1` (stereo not drawn) [Example 9], the EC50 in assay [1] (COS7 cells, read-out: EC50) is 540 nM. Moreover, in assay [1], the Emax came out at 47%. In addition, in assay [2], the “maximum activity compared with that” value was “equal to or more than that of termisartan”.

`CCCCc1nc(C)n(-c2ncc(OC)cn2)c(=O)c1Cc1cc(CCC)c(OC(C(=O)O)c2ccccc2)c(CCC)c1` (stereo not drawn) [Example 15] returned an IC50 in assay [3] of 92 nM. In assay [1] (COS7 cells, read-out: EC50), the EC50 amounted to 2710 nM. The Emax in assay [1] amounted to 47.2%. Further, in assay [2], the “maximum activity compared with that” value was “equal to or more than that of termisartan”.

As for `CCCc1nc2c(C)cc(-c3nc4ccccc4n3C)cc2n1Cc1ccc(-c2ccccc2C(=O)O)cc1` [telmisartan, reference compound], half-maximal inhibition in assay [3] (IC50) was put at 25 nM. Further, the Emax in assay [1] lay within 30 to 50%. Further, in assay [1] (EC50, COS7 cells), the EC50 fell in the range of 1000 to 5000 nM.

In assay [3], `CCCCc1nc(C)n(CC2CCCCC2)c(=O)c1Cc1cc(CCC)c(OC(C(=O)O)c2ccccc2)c(CCC)c1` (stereo not drawn) [Example 30, 2-[4-[(4-butyl-1-(cyclohexylmethyl)-2-methyl-6-oxo-1,6-dihydropyrimidin-5-yl}methyl]-2,6-dipropylphenoxy]-2-phenylacet ic acid] showed an IC50 of 836 nM. Also, the EC50 in assay [1] (COS7 cells, read-out: EC50) amounted to 280 nM. In assay [1], the Emax was found to be 28.5%.

As for `CCCCc1nc(C)n(Cc2ccccc2)c(=O)c1Cc1cc(CCC)c(OC(C(=O)O)c2ccccc2)c(CCC)c1` (stereo not drawn) [Example 28, 2-[4-{(1-benzyl-4-butyl-2-methyl-6-oxo-1,6-dihydropyrimidin-5-yl)methyl}-2,6-dipropylphenoxy]-2-phenylacetic acid], in assay [3], the IC50 came out at 724 nM. In addition, the EC50 in assay [1] (COS7 cells, read-out: EC50) worked out at 850 nM. Moreover, in assay [1], the Emax came out at 21.3%.

Consider `CCCCc1nc(C)n(-c2ccccn2)c(=O)c1Cc1cc(CCC)c(OC(C(=O)O)c2ccccc2)c(CCC)c1` (stereo not drawn) [Example 1, 2-[4-[{4-butyl-2-methyl-6-oxo-1-(pyridin-2-yl)-1,6-dihydropyrimidin-5-yl}methyl]-2,6-dipropylphenoxy]-2-phenylacetic acid], for which the IC50 in assay [3] was 530 nM. Besides, in assay [1] (COS7 cells, read-out: EC50), the EC50 came out at 3070 nM. The Emax in assay [1] is 32%.

`CCCCc1nc(C)n(-c2ncc(OCC)cn2)c(=O)c1Cc1cc(CCC)c(OC(C(=O)O)c2ccccc2)c(CCC)c1` (stereo not drawn) [Example 20] showed an IC50 in assay [3] of 115 nM. Further, the EC50 in assay [1] (COS7 cells, read-out: EC50) is 2590 nM. Further, the Emax in assay [1] worked out at 58.6%.

Regarding `CCCCc1nc(C)n(-c2ncc(OC)cn2)c(=O)c1Cc1cc(CCC)c(OC(C(=O)O)c2ccccc2)c(CCC)c1` (single isomer, unassigned; (-)) [Example 16, (−)-2-[4-[{4-butyl-1-(5-methoxypyrimidin-2-yl)-2-methyl-6-oxo-1,6-dihydropyrimidin-5-yl}methyl]-2,6-dipropylphenoxy]-2-phenylacetic acid], the IC50 in assay [3] worked out at 58 nM. In assay [1] (COS7 cells, read-out: EC50), the EC50 came to 1460 nM. In assay [1], the Emax came out at 44.4%.

The compound `CCCCc1nc(C)n(CCOC)c(=O)c1Cc1cc(CCC)c(OC(C(=O)O)c2ccccc2)c(CCC)c1` (stereo not drawn) [Example 33, 2-[4-[{4-butyl-1-(2-methoxyethyl)-2-methyl-6-oxo-1,6-dihydropyrimidin-5-yl}methyl]-2,6-dipropylphenoxy]-2-phenylacetic acid] yielded an IC50 in assay [3] of 250 nM. Moreover, the EC50 in assay [1] (COS7 cells, read-out: EC50) was found to be 2670 nM.

Regarding `CCCCc1nc(C)n(-c2ccc(OCc3ccccc3)cc2)c(=O)c1Cc1cc(CCC)c(OC(C(=O)O)c2ccccc2)c(CCC)c1` (stereo not drawn) [Example 12, 2-[4-[[1-{4-(benzyloxy)phenyl}-4-butyl-2-methyl-6-oxo-1,6-dihydropyrimidin-5-yl]methyl]-2,6-dipropylphenoxy]-2-phenyla cetic acid], the EC50 in assay [1] (COS7 cells, read-out: EC50) amounted to 440 nM. Moreover, the Emax in assay [1] is 57.5%. The “maximum activity compared with that” value in assay [2] is given as “equal to or more than that of termisartan”.

For orientation: EC50 means the concentration giving half of the maximal effect. For orientation: IC50 means the concentration at which inhibition is half-maximal.
